The values below come from patent US12559492B2, “BRAF degraders” (C4 Therapeutics, Inc., priority 2020, dated 2026).

The experiment has as its target BRAF^V600E protein (Homo sapiens, UniProt P15056, V600E). In words: HiBiT cellular BRAF V600E degradation assay. The note with it: 24 h incubation; for DC50: A375.10 cells (HiBiT tag knocked in at N-terminal of BRAF V600E), concentration at which 50% of total cellular BRAF V600E is degraded; for Emax / HiBit 24 h Emax: A375.10 cells, Emax = amount of residual protein remaining in the cell after compound treatment; for Emax: read-out: HiBit 24 h Emax. It counts as cell-based. A general note: The HiBiT peptide binds its large partner to form an active luciferase.

Chain of BRAF^V600E protein (P15056 whole entry V600E): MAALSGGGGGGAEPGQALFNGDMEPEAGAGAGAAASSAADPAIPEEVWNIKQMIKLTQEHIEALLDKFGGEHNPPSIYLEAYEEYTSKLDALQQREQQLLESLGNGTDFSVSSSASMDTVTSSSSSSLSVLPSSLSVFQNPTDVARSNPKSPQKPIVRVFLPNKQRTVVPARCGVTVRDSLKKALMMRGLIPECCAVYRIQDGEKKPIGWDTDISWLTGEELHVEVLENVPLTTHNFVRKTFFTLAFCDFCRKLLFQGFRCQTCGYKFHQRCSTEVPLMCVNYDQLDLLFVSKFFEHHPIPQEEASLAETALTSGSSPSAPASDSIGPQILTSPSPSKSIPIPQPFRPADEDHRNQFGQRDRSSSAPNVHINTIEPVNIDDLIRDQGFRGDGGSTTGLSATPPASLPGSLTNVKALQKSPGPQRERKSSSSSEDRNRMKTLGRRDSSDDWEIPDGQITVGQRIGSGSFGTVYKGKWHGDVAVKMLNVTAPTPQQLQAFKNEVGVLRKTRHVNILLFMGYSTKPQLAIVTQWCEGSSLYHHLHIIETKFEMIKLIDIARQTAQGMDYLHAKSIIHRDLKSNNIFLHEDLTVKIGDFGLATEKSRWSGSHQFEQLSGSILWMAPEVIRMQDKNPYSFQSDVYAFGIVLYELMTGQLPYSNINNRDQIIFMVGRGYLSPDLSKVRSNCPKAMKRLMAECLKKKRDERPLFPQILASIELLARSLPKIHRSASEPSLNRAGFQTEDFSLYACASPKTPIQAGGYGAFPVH

In general, DC50 refers to the midpoint of the concentration-degradation curve. Higher therefore signals a less potent degrader. As a reminder, the Emax is the greatest response seen or fitted, relative to the assay's reference. For the compound `CN(C1CC1)S(=O)(=O)Nc1ccc(F)c(C(=O)c2c[nH]c3ncc(-c4ccc(N5CCN(C(=O)CC6(O)CCN(c7ccc(NC8CCC(=O)NC8=O)cc7F)CC6)CC5)nc4)cc23)c1F` (stereo not shown) [Example 217, 3-[3-[[cyclopropyl(methyl)sulfamoyl]amino]-2,6-difluoro-benzoyl]-5-[6-[4-[2-[1-[4-[(2,6-dioxo-3-piperidyl)amino]-2-fluoro-phenyl]-4-hydroxy-4-piperidyl]acetyl]piperazin-1-yl]-3-pyridyl]-1H-pyrrolo[2,3-b]pyridine], it took 62.2 nM to reach half-maximal degradation (DC50) and the maximum response (Emax) is 21%.

Regarding `CCN(C)S(=O)(=O)Nc1ccc(F)c(C(=O)c2c[nH]c3ncc(-c4ccc(CN5CCN(C(=O)N6CCN(c7ccc(OC8CCC(=O)NC8=O)cc7)CC6)CC5)cc4)cc23)c1F` (stereo not shown) [Example A4, 5-[4-[[4-[4-[4-(2,6-Dioxopiperidin-3-yl)oxyphenyl]piperazine-1-carbonyl]piperazin-1-yl]methyl]phenyl]-3-[3-[[ethyl(methyl)sulfamoyl]amino]-2,6-difluorobenzoyl]-1H-pyrrolo[2,3-b]pyridine], the DC50 was found to be 83 nM and the Emax is 31%.

With `CCN(C)S(=O)(=O)Nc1ccc(F)c(C(=O)c2c[nH]c3ncc(-c4ccc(N5CCN(C(=O)CN6CCC(c7ccc(O[C@H]8CCC(=O)NC8=O)cc7)CC6)CC5)nc4)cc23)c1F` [Example 73, 5-[6-[4-[2-[4-[4-[[(3S)-2,6-dioxo-3-piperidyl]oxy]phenyl]-1-piperidyl]acetyl]piperazin-1-yl]-3-pyridyl]-3-[3-[[ethyl(methyl)sulfamoyl]amino]-2,6-difluoro-benzoyl]-1H-pyrrolo[2,3-b]pyridine], the DC50 amounted to 12.3 nM and the “HiBit 24 h Emax” value came out at 8.05%.

As for `CCN(C)S(=O)(=O)Nc1ccc(F)c(C(=O)c2c[nH]c3ncc(-c4cnc(N5CCC(C(=O)N6CCC(c7ccc(NC8CCC(=O)NC8=O)cc7)CC6)CC5)nc4)cc23)c1F` (stereo not shown) [Example A94, 5-[2-[4-[4-[4-[(2,6-Dioxopiperidin-3-yl)amino]phenyl]piperidine-1-carbonyl]piperidin-1-yl]pyrimidin-5-yl]-3-[3-[[ethyl(methyl)sulfamoyl]amino]-2,6-difluorobenzoyl]-1H-pyrrolo[2,3-b]pyridine], the DC50 came out at 13 nM and the “HiBit 24 h Emax” value was found to be 8%.

In the case of `O=C1CCC(Nc2ccc(C3CCN(CC(=O)N4[C@@H]5CCC[C@H]4CN(c4ccc(-c6cnc7[nH]cc(C(=O)c8c(F)ccc(NS(=O)(=O)N9CCCC9)c8F)c7c6)cn4)C5)CC3)cc2)C(=O)N1` (mixture of isomers) [Example A84, N-[2,4-Difluoro-3-[5-[6-[rac-(1R,5S)-9-[2-[4-[4-[(2,6-dioxopiperidin-3-yl)amino]phenyl]piperidin-1-yl]acetyl]-3,9-diazabicyclo[3.3.1]nonan-3-yl]pyridin-3-yl]-1H-pyrrolo[2,3-b]pyridine-3-carbonyl]phenyl]pyrrolidine-1-sulfonamide], it took 11 nM to reach half-maximal degradation (DC50) and the Emax came to 11%.

For `CC(C)S(=O)(=O)Nc1ccc(F)c(C(=O)c2c[nH]c3ncc(-c4ccc(N5CCN(C(=O)C6CC(N7CCC(c8ccc(NC9CCC(=O)NC9=O)cc8)CC7)C6)CC5)nc4)cc23)c1F` (stereo not shown) [Example A107, N-[3-[5-[6-[4-[3-[4-[4-[(2,6-Dioxopiperidin-3-yl)amino]phenyl]piperidin-1-yl]cyclobutanecarbonyl]piperazin-1-yl]pyridin-3-yl]-1H-pyrrolo[2,3-b]pyridine-3-carbonyl]-2,4-difluorophenyl]propane-2-sulfonamide], it took 12 nM to reach half-maximal degradation (DC50) and the Emax turned out to be 12%.

Turning to `CCN(C)S(=O)(=O)Nc1ccc(F)c(C(=O)c2c[nH]c3ncc(-c4cnc(N5CCN(C(=O)CN6CCC(c7ccc(NC8CCC(=O)NC8=O)cc7C#N)CC6)CC5)nc4)cc23)c1F` (stereo not shown) [Example 40, 5-[2-[4-[2-[4-[2-cyano-4-[(2,6-dioxo-3-piperidyl)amino]phenyl]-1-piperidyl]acetyl]piperazin-1-yl]pyrimidin-5-yl]-3-[3-[[ethyl(methyl)sulfamoyl]amino]-2,6-difluoro-benzoyl]-1H-pyrrolo[2,3-b]pyridine], the DC50 came to 11.7 nM and the Emax was found to be 8.42%.

With `CCN(C)S(=O)(=O)Nc1ccc(F)c(C(=O)c2c[nH]c3ncc(-c4cnc(N5CCN(C(=O)C(C)(C)N6CCC(c7ccc(NC8CCC(=O)NC8=O)cc7)CC6)CC5)nc4)cc23)c1F` (stereo not shown) [Example A55, 5-[2-[4-[2-[4-[4-[(2,6-Dioxopiperidin-3-yl)amino]phenyl]piperidin-1-yl]-2-methylpropanoyl]piperazin-1-yl]pyrimidin-5-yl]-3-[3-[[ethyl(methyl)sulfamoyl]amino]-2,6-difluorobenzoyl]-1H-pyrrolo[2,3-b]pyridine], the DC50 turned out to be 97 nM and the Emax came to 26%.

Consider `CC(C)S(=O)(=O)Nc1ccc(F)c(C(=O)c2c[nH]c3ncc(-c4ccc(N5CCN(C(=O)CN6CCC(c7ccc(C8CCC(=O)NC8=O)cc7F)CC6)CC5)nc4)cc23)c1F` (stereo not shown) [Example 15, N-[3-[5-[6-[4-[2-[4-[4-(2,6-dioxo-3-piperidyl)-2-fluoro-phenyl]-1-piperidyl]acetyl]piperazin-1-yl]-3-pyridyl]-1H-pyrrolo[2,3-b]pyridine-3-carbonyl]-2,4-difluoro-phenyl]propane-2-sulfonamide], for which the DC50 worked out at 9.59 nM and the maximum response (Emax) turned out to be 2.65%.

`CCN(C)S(=O)(=O)Nc1ccc(F)c(C(=O)c2c[nH]c3ncc(-c4cnc(N5CCN(C(=O)CC6(O)CCN(c7ccc(N8CCC(=O)NC8=O)cc7F)CC6)CC5)c(F)c4)cc23)c1F` [Example 194, 5-[6-[4-[2-[1-[4-(2,4-dioxohexahydropyrimidin-1-yl)-2-fluoro-phenyl]-4-hydroxy-4-piperidyl]acetyl]piperazin-1-yl]-5-fluoro-3-pyridyl]-3-[3-[[ethyl(methyl)sulfamoyl]amino]-2,6-difluoro-benzoyl]-1H-pyrrolo[2,3-b]pyridine]: the half-maximal degradation concentration (DC50) was determined as 4.5 nM and the Emax was 8.29%.

Regarding `CCN(C)S(=O)(=O)Nc1ccc(F)c(C(=O)c2c[nH]c3ncc(-c4cnc(N5CCN(C(=O)CC6CCN(c7ccc8c(c7)n(C)c(=O)n8C7CCC(=O)NC7=O)CC6)CC5)nc4)cc23)c1F` (stereo not shown) [Example 43, 1-(2,6-dioxo-3-piperidyl)-5-[4-[2-[4-[5-[3-[3-[[ethyl(methyl)sulfamoyl]amino]-2,6-difluoro-benzoyl]-1H-pyrrolo[2,3-b]pyridin-5-yl]pyrimidin-2-yl]piperazin-1-yl]-2-oxo-ethyl]-1-piperidyl]-3-methyl-2-oxo-benzimidazole], it took 22.1 nM to reach half-maximal degradation (DC50) and the maximum response (Emax) came out at 35.2%.

Regarding `CCN(C)S(=O)(=O)Nc1ccc(F)c(C(=O)c2c[nH]c3ncc(-c4cnc(N5CCN(C(=O)CN6CCC(c7c(F)cc(OC8CCC(=O)NC8=O)cc7F)CC6)CC5)nc4)cc23)c1F` (stereo not shown) [Example 41, 5-[2-[4-[2-[4-[4-[(2,6-dioxo-3-piperidyl)oxy]-2,6-difluoro-phenyl]-1-piperidyl]acetyl]piperazin-1-yl]pyrimidin-5-yl]-3-[3-[[ethyl(methyl)sulfamoyl]amino]-2,6-difluoro-benzoyl]-1H-pyrrolo[2,3-b]pyridine], the DC50 was determined as 24.5 nM and the Emax was determined as 9.48%.

`CCN(C)S(=O)(=O)Nc1ccc(F)c(C(=O)c2c[nH]c3ncc(-c4ccc(N5CCN(C(=O)CC6(O)CCN(c7ccc(N[C@H]8CCC(=O)NC8=O)cc7F)CC6)CC5)cc4)cc23)c1F` [Example 179, 5-[4-[4-[2-[1-[4-[[(3S)-2,6-dioxo-3-piperidyl]amino]-2-fluoro-phenyl]-4-hydroxy-4-piperidyl]acetyl]piperazin-1-yl]phenyl]-3-[3-[[ethyl(methyl)sulfamoyl]amino]-2,6-difluoro-benzoyl]-1H-pyrrolo[2,3-b]pyridine]: it took 5.91 nM to reach half-maximal degradation (DC50) and the Emax came out at 8.35%.

For the compound `CCN(C)S(=O)(=O)Nc1ccc(F)c(C(=O)c2c[nH]c3ncc(-c4cnc(N5CCC(n6cc7c(n6)CCN(c6ccc(NC8CCC(=O)NC8=O)cc6)C7)CC5)nc4)cc23)c1F` (stereo not shown) [Example 152, 5-[4-[(2,6-dioxo-3-piperidyl)amino]phenyl]-2-[1-[5-[3-[3-[[ethyl(methyl)sulfamoyl]amino]-2,6-difluoro-benzoyl]-1H-pyrrolo[2,3-b]pyridin-5-yl]pyrimidin-2-yl]-4-piperidyl]-6,7-dihydro-4H-pyrazolo[4,3-c]pyridine], the DC50 stood at 16.6 nM and the Emax worked out at 11.9%.

For `CCN(C)S(=O)(=O)Nc1ccc(F)c(C(=O)c2c[nH]c3ncc(-c4ccc(N5CCN(C(=O)CN6CCC(c7ccc(NC8CCC(=O)NC8=O)cc7)C(F)(F)C6)CC5)nc4)cc23)c1F` (stereo in doubt) [Example 77, 5-[6-[4-[2-[(4R)-4-[4-[(2,6-dioxo-3-piperidyl)amino]phenyl]-3,3-difluoro-1-piperidyl]acetyl]piperazin-1-yl]-3-pyridyl]-3-[3-[[ethyl(methyl)sulfamoyl]amino]-2,6-difluoro-benzoyl]-1H-pyrrolo[2,3-b]pyridine], the DC50 worked out at 3.49 nM and the Emax worked out at 9.19%.

For `CCN(C)S(=O)(=O)Nc1cccc(C(=O)c2c[nH]c3ncc(-c4cnc(N5CCN(C(=O)CC6CCN(c7ccc(NC8CCC(=O)NC8=O)cc7C(F)(F)F)CC6)CC5)nc4)cc23)c1F` (stereo not shown) [Example 106, 5-[2-[4-[2-[1-[4-[(2,6-dioxo-3-piperidyl)amino]-2-(trifluoromethyl)phenyl]-4-piperidyl]acetyl]piperazin-1-yl]pyrimidin-5-yl]-3-[3-[[ethyl(methyl)sulfamoyl]amino]-2-fluoro-benzoyl]-1H-pyrrolo[2,3-b]pyridine], the DC50 was 34.8 nM and the Emax was determined as 11.5%.

Turning to `CCN(C)S(=O)(=O)Nc1ccc(F)c(C(=O)c2c[nH]c3ncc(-c4cnc(N5CCN(C(=O)CN6CCN(c7ccc(NC8CCC(=O)NC8=O)cc7)CC6)CC5)nc4)cc23)c1F` (stereo not shown) [Example A16, 5-[2-[4-[2-[4-[4-[(2,6-Dioxopiperidin-3-yl)amino]phenyl]piperazin-1-yl]acetyl]piperazin-1-yl]pyrimidin-5-yl]-3-[3-[[ethyl(methyl)sulfamoyl]amino]-2,6-difluorobenzoyl]-1H-pyrrolo[2,3-b]pyridine], the DC50 was determined as 8 nM and the Emax stood at 11%.
